Experimental data taken from patent US20220282217A1, “COMPOSITIONS AND METHODS FOR PREPARING T CELL COMPOSITIONS AND USES THEREOF” (priority 2019, published 2022).
Values joined by “and” are separate entries in the source; they are usually repeats but may differ in a detail not shown here. Equal values may be shown once. Read-outs that look alike come from different tables or passages of the source. Where a SMILES comes first, the peptide text is derived from it.

Columns and labels:
[1] = system: 293T cells transduced with GATA3 neoORF, expressing the HLA of interest; assay: Presentation of GATA3 neoantigens: HLA-eluted peptides by targeted MS/MS (PRM) (Table 14); format: cell-based, human
Protocol: To assess whether antigens could be processed and presented from the larger polypeptide context, peptides eluted from HLA molecules isolated from cells expressing the genes of interest were analyzed by tandem mass spectrometry (MS/MS).
Between 50 and 700 million of the transduced cells expressing peptides encoded by the GATA3 neoORF sequence were cultured and peptides were eluted from HLA-peptide complexes using an acid wash. Eluted peptides were then analyzed by targeted MS/MS using PRM. Spectral comparison between peptides derived from GATA3 neoORF and corresponding synthetic peptides were performed to confirm each detection.

HLA-A24.02 [2] = assay: Class I MHC peptide binding affinity (displacement of radiolabeled reference peptide); design: species or system human; settings: allele A24.02; read-out: Observed Affinity (IC50; (nM))
HLA-A02.01 [3] = molecular target: HLA-A02.01 (Homo sapiens, UniProt P04439, D140Y/D185E/D98H/E176V/E277Q/G131W/G231S/I119V/I121R/I166T/I218V/L300P/L318F/N151K/N90K/P208A/P217A/Q86G/Q94H/R138H/R169H/T345S); assay: as above; settings: (nM)), allele A02.01
How it was run: (§1)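 Displacement format in which varying amounts of peptide compete for 2 days with a radiolabeled reference ligand prebound to class I MHC, residual complex-associated label being measured after gel-filtration separation.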

HLA-B08.01 = HLA-B08.01 (Homo sapiens, UniProt P01889, A93T/A95T/D138N/E176V/E187T/K202T/Q94N/R180D/S35A/V36M/Y33D/Y91F); assay: as above
How it was run: as §1

HLA-A24.02 [4] = assay: Class I MHC peptide binding stability (pMHC-I dissociation, 125I-labeled light chain); design: species or system human; settings: allele A24.02
HLA-A02.01 [5] = molecular target: T1, HLA-A02.01 (Homo sapiens, UniProt P04439, D140Y/D185E/D98H/E176V/E277Q/G131W/G231S/I119V/I121R/I166T/I218V/N151K/N90K/P208A/P217A/Q86G/Q94H/R138H/R169H); assay: as above; settings: allele A02.01
T1 construct: made in house; host or cells: E. coli

HLA-B07.02 [6] = molecular target: T2, HLA-B07.02 (Homo sapiens, UniProt P01889); assay: as above; design: made in house; host or cells: E. coli; settings: Allele B07.02
HLA-A11.01 = HLA-A11.01 (Homo sapiens, UniProt P04439, A114D/D185E/E176A/F33Y/L180Q/S129P/T187R); assay: Class I MHC peptide binding affinity (displacement of radiolabeled reference peptide)
HLA-A03.01 = HLA-A03.01 (Homo sapiens, UniProt P04439); assay: as above; settings: Observed Affinity (IC50; (nM)), allele A03.01
HLA-B07.02 [7] = molecular target: T2, HLA-B07.02; assay: as above; settings: Allele B07.02; read-out: Observed Affinity (IC50; (nM))
[8] = read-out: Observed Affinity (IC50
[9] = GATA3 neoORF transduced 293T cells expressing HLA-A*02:01 protein

Row | Structure (SMILES) | IC50 (HLA-A02.01 [3]; Observed Affinity (IC50) | IC50 (HLA-B08.01) | Stability (T1/2 (h)) (HLA-A02.01 [5]) | Stability (T1/2 (h)) (HLA-B07.02 [6]) | also measured
1 | CC[C@H](C)[C@H](NC(=O)[C@H](CCCCN)NC(=O)[C@H](CO)NC(=O)[C@@H](N)CCC(=O)O)C(=O)N[C@@H](CCSC)C(=O)N[C@@H](Cc1ccccc1)C(=O)N[C@@H](C)C(=O)N[C@H](C(=O)N[C@@H](CC(C)C)C(=O)O)[C@@H](C)O | – | – | – | – | detected by mass spectrometry (peptide eluted from HLA-peptide complexes) ([1]; GATA3 neoORF transduced 293T cells expressing HLA-B*08:01 protein): detected
2 | CC(C)C[C@H](NC(=O)[C@H](CO)NC(=O)[C@H](CO)NC(=O)[C@H](CCCNC(=N)N)NC(=O)[C@H](CCC(N)=O)NC(=O)[C@H](CC(C)C)NC(=O)[C@@H](NC(=O)[C@H](C)NC(=O)[C@@H](N)Cc1ccccc1)[C@@H](C)O)C(=O)O | – | – | – | – | detected by mass spectrometry (peptide eluted from HLA-peptide complexes) ([1]; GATA3 neoORF transduced 293T cells expressing HLA-C*03:03 protein): detected
3 | CC(C)C[C@H](NC(=O)[C@H](CO)NC(=O)[C@H](CCCCN)NC(=O)[C@H](CC(C)C)NC(=O)[C@@H](NC(=O)[C@H](CO)NC(=O)[C@@H]1CCCN1C(=O)[C@H](CC(C)C)NC(=O)[C@@H](N)Cc1ccccc1)[C@@H](C)O)C(=O)O | 21 nM | 1.97 µM | – | – | IC50 (HLA-A24.02 [2]): 995 nM; Stability (T1/2 (h)) (HLA-A24.02 [4]): 1 h
4 | CSCC[C@H](NC(=O)[C@H](CC(C)C)NC(=O)[C@@H](N)CCCCN)C(=O)N[C@@H](CC(C)C)C(=O)N[C@@H](CC(C)C)C(=O)N[C@@H](CCCNC(=N)N)C(=O)N[C@@H](CC(C)C)C(=O)N[C@@H](CC(N)=O)C(=O)N[C@@H](CC(C)C)C(=O)O | – | – | 16.9 h | 1.5 h | IC50 (HLA-A02.01 [3]; [8]): 17 nM and 2.6 nM
5 | CC[C@H](C)[C@H](NC(=O)[C@H](Cc1ccccc1)NC(=O)[C@H](CCCNC(=N)N)NC(=O)[C@@H]1CCCN1C(=O)[C@H](CC(C)C)NC(=O)[C@@H](N)CO)C(=O)N[C@@H](CC(C)C)C(=O)N[C@@H](CCSC)C(=O)N[C@@H](CCC(=O)O)C(=O)N[C@@H](CC(C)C)C(=O)O | – | – | 0.5 h | 0.4 h | IC50 (HLA-A24.02 [2]): 2770 nM; IC50 (HLA-A02.01 [3]; [8]): 26 nM; Stability (T1/2 (h)) (HLA-A24.02 [4]): 0.2 h
6 | CSCC[C@H](NC(=O)[C@@H](N)CO)C(=O)N[C@@H](CC(C)C)C(=O)N[C@H](C(=O)NCC(=O)N1CCC[C@H]1C(=O)N1CCC[C@H]1C(=O)N[C@@H](C)C(=O)N[C@@H](CCCNC(=N)N)C(=O)N[C@H](C(=O)O)C(C)C)[C@@H](C)O | – | – | 21.7 h | – | detected by mass spectrometry (peptide eluted from HLA-peptide complexes) [1, 9]: detected
7 | CSCC[C@H](NC(=O)[C@H](C)N)C(=O)N[C@H](C(=O)N[C@H](C(=O)N[C@@H](CO)C(=O)N[C@@H](CO)C(=O)N[C@@H](CO)C(=O)N[C@@H](CCC(N)=O)C(=O)N[C@@H](CCCCN)C(=O)O)[C@@H](C)O)[C@@H](C)O (H-AMTTSSSQK-OH; N-terminus and C-terminus assumed) | – | – | – | – | IC50 (HLA-A11.01): 162 nM; IC50 (HLA-A03.01): 8.3 nM
8 | CC(C)C[C@H](NC(=O)[C@@H]1CCCN1C(=O)[C@@H]1CCCN1C(=O)[C@@H](NC(=O)[C@H](CO)NC(=O)[C@H](CC(C)C)NC(=O)[C@H](CC(C)C)NC(=O)[C@H](CCC(=O)O)NC(=O)[C@@H](N)Cc1ccccc1)[C@@H](C)O)C(=O)O (H-FELLSTPPL-OH; N-terminus and C-terminus assumed) | 225 nM | 3.18 µM | – | – | –
9 | CC(C)[C@H](NC(=O)[C@H](CO)NC(=O)[C@@H](NC(=O)[C@@H](NC(=O)[C@H](C)NC(=O)[C@H](C)NC(=O)[C@H](CCCNC(=N)N)NC(=O)[C@@H](NC(=O)[C@@H]1CCCN1C(=O)[C@@H](N)CCCCN)[C@@H](C)O)[C@@H](C)O)C(C)C)C(=O)O (H-KPTRAATVSV-OH; N-terminus and C-terminus assumed) | – | – | – | 3 h | IC50 (HLA-B07.02 [7]): 8 nM
10 | CC(C)C[C@H](N)C(=O)N[C@@H](C)C(=O)N[C@H](C(=O)N[C@@H](CCC(=O)O)C(=O)N[C@@H](CCCCN)C(=O)N[C@@H](CO)C(=O)N[C@@H](CCCNC(=N)N)C(=O)N[C@@H](Cc1c[nH]c2ccccc12)C(=O)N[C@@H](CO)C(=O)O)[C@@H](C)O (H-LATEKSRWS-OH; N-terminus and C-terminus assumed) | 61000 nM | 37 µM | – | – | –
11 | CC(C)C[C@H](N)C(=O)N[C@@H](C)C(=O)N[C@H](C(=O)N[C@@H](CCC(=O)O)C(=O)N[C@@H](CCCCN)C(=O)N[C@@H](CO)C(=O)N[C@@H](CCCNC(=N)N)C(=O)N[C@@H](Cc1c[nH]c2ccccc12)C(=O)N[C@@H](CO)C(=O)NCC(=O)O)[C@@H](C)O (H-LATEKSRWSG-OH; N-terminus and C-terminus assumed) | 23300 nM | 46.6 µM | – | – | –
12 | CC(C)C[C@H](NC(=O)[C@@H]1CCCN1C(=O)[C@H](CO)NC(=O)[C@H](CCCNC(=N)N)NC(=O)[C@H](CC(C)C)NC(=O)[C@H](CCCCN)NC(=O)[C@H](CCCCN)NC(=O)[C@@H](N)CC(C)C)C(=O)O (H-LKKLRSPL-OH; N-terminus and C-terminus assumed) | – | 0.0006 µM | – | – | –
13 | CC(C)C[C@H](N)C(=O)N1CCC[C@H]1C(=O)N[C@@H](CCCNC(=N)N)C(=O)N[C@@H](CCCCN)C(=O)N1CCC[C@H]1C(=O)N[C@H](C(=O)N[C@@H](CCCNC(=N)N)C(=O)N[C@@H](C)C(=O)N[C@@H](C)C(=O)N[C@H](C(=O)O)[C@@H](C)O)[C@@H](C)O (H-LPRKPTRAAT-OH; N-terminus and C-terminus assumed) | – | – | – | 3.7 h | IC50 (HLA-B07.02 [7]): 3 nM
14 | CSCC[C@H](N)C(=O)N[C@@H](CC(C)C)C(=O)N[C@H](C(=O)NCC(=O)N1CCC[C@H]1C(=O)N1CCC[C@H]1C(=O)N[C@@H](C)C(=O)N[C@@H](CCCNC(=N)N)C(=O)N[C@H](C(=O)O)C(C)C)[C@@H](C)O (H-MLTGPPARV-OH; N-terminus and C-terminus assumed) | – | – | – | – | IC50 (HLA-A02.01 [3]; [8]): 10.6 nM; detected by mass spectrometry (peptide eluted from HLA-peptide complexes) [1, 9]: detected
15 | CC[C@H](C)[C@H](NC(=O)[C@H](CCCCN)NC(=O)[C@H](C)NC(=O)[C@@H](NC(=O)[C@@H](N)CCCNC(=N)N)C(C)C)C(=O)N[C@@H](C)C(=O)N[C@@H](CC(=O)O)C(=O)N[C@@H](Cc1ccccc1)C(=O)NCC(=O)N[C@@H](CCSC)C(=O)O (H-RVAKIADFGM-OH; N-terminus and C-terminus assumed) | – | – | 0.5 h | 0.2 h | IC50 (HLA-A02.01 [3]; [8]): 125 nM; IC50 (HLA-B07.02 [7]): 9720 nM
16 | CC[C@H](C)[C@H](NC(=O)[C@H](CC(N)=O)NC(=O)[C@H](CCSC)NC(=O)[C@H](Cc1c[nH]cn1)NC(=O)[C@H](CC(N)=O)NC(=O)CNC(=O)[C@H](CC(C)C)NC(=O)[C@@H](N)Cc1ccc(O)cc1)C(=O)N[C@@H](C)C(=O)O (H-YLGNHMNIA-OH; N-terminus and C-terminus assumed) | 117 nM | 0.872 µM | 0.6 h | – | –
17 | CC(C)C[C@H](NC(=O)[C@H](CC(=O)O)NC(=O)[C@H](CO)NC(=O)[C@H](CCC(N)=O)NC(=O)[C@H](CCC(N)=O)NC(=O)[C@H](CCC(N)=O)NC(=O)[C@H](CCC(N)=O)NC(=O)[C@H](CCC(N)=O)NC(=O)[C@@H](N)Cc1ccc(O)cc1)C(=O)O (H-YQQQQQSDL-OH; N-terminus and C-terminus assumed) | 799 nM | 18.9 µM | 0.4 h | – | –
18 | CC(C)C[C@H](NC(=O)[C@H](C)NC(=O)[C@@H](NC(=O)[C@H](CCCNC(=N)N)NC(=O)[C@H](CO)NC(=O)[C@H](CC(=O)O)NC(=O)[C@H](CO)NC(=O)[C@H](CC(C)C)NC(=O)[C@@H](N)CCCCN)[C@@H](C)O)C(=O)O [KLSDSRTAL] | – | – | 2.8 h | 6.8 h | –
19 | CC(C)C[C@H](NC(=O)[C@H](C)NC(=O)[C@H](CC(C)C)NC(=O)[C@H](Cc1c[nH]cn1)NC(=O)[C@@H]1CCCN1C(=O)[C@H](CCC(=O)O)NC(=O)[C@@H]1CCCN1C(=O)[C@H](CC(C)C)NC(=O)[C@@H](N)C(C)C)C(=O)O [VLPEPHLAL] (H-VLPEPHLAL-OH; N-terminus and C-terminus assumed) | – | – | – | – | detected by mass spectrometry (peptide eluted from HLA-peptide complexes) [1, 9]: detected
